PubChem BioAssay (NCI)
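Five compound concentrations were applied to cells in 96-well plates for 48 hours; endpoints were derived by simple linear interpolation of the resulting dose-response curve. GI50 marks 50% less growth. At the TGI there is no net growth.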

Legend:
Test in all cases: DTP human tumour cell line panel, 48 h
[1] = tested on: SNB-75 CNS
[2] = tested on: HL-60(TB) leukemia
[3] = tested on: BT-549 breast
[4] = tested on: COLO 205 colon
[5] = tested on: OVCAR-4 ovarian
[6] = tested on: OVCAR-3 ovarian
[7] = tested on: SK-MEL-28 melanoma
[8] = tested on: NCI/ADR-RES ovarian
[9] = tested on: UO-31 renal
[10] = tested on: HCT-15 colon
[11] = tested on: NCI-H23 lung
[12] = tested on: MOLT-4 leukemia
[13] = tested on: MDA-MB-231 breast
[14] = tested on: HOP-92 NSCLC
[15] = tested on: HCT-116 colon
[16] = tested on: SF-295 CNS
[17] = tested on: HCC-2998 colon
[18] = tested on: MDA-MB-435
[19] = tested on: HOP-62 NSCLC
[20] = tested on: SNB-19 CNS
[21] = tested on: A498 renal
[22] = tested on: 786-0 renal
[23] = tested on: ACHN renal
[24] = tested on: SF-539 CNS
[25] = tested on: OVCAR-8 ovarian
[26] = tested on: SK-MEL-2 melanoma
[27] = tested on: PC-3 prostate
[28] = tested on: CCRF-CEM leukemia
[29] = tested on: SF-268 CNS

With `CCN1CCC[C@H]1c1cc(O)c2c(c1OC)C[C@H]1C[C@H]3[C@H](N)C(=O)C(C(N)=O)=C(O)[C@@]3(O)C(=O)C1=C2O` the GI50 [1] was 60.9 nM, the TGI [1] was 1580 nM and the GI50 [2] was 37.9 nM. For the same compound, the TGI [2] was 238 nM, the GI50 [3] was 71.9 nM and the TGI [3] was 1280 nM. For the same compound, the GI50 [4] was 58.3 nM, the TGI [4] was 682 nM and the GI50 [5] was 67.5 nM. For the same compound, the TGI [5] was 2730 nM, the GI50 [6] was 130 nM and the TGI [6] was 3170 nM. It also gave a GI50 [7] of 66.8 nM, a TGI [7] of 1260 nM and a GI50 [8] of 435 nM. The TGI [8] was > 61500 nM, the GI50 [9] was 52.8 nM and the TGI [9] was 2930 nM. It also gave a GI50 [10] of 54.7 nM, a TGI [10] of 5170 nM and a GI50 [11] of 167 nM. For the same compound, the TGI [11] was 2180 nM, the GI50 [12] was 58.7 nM and the TGI [12] was 666 nM. The GI50 [13] was 43.1 nM, the TGI [13] was 717 nM and the GI50 [14] was 52.2 nM. It also gave a TGI [14] of 3520 nM, a GI50 [15] of 45.6 nM and a TGI [15] of 1960 nM. For the same compound, the GI50 [16] was 208 nM, the TGI [16] was 3800 nM and the GI50 [17] was 118 nM. For the same compound, the TGI [17] was 3010 nM, the GI50 [18] was 91.7 nM and the TGI [18] was 2340 nM. The GI50 [19] was 51.7 nM, the TGI [19] was 1670 nM and the GI50 [20] was 113 nM. It also gave a TGI [20] of 2040 nM, a GI50 [21] of 31.5 nM and a TGI [21] of 200 nM. The GI50 [22] was 50.4 nM, the TGI [22] was 2190 nM and the GI50 [23] was 51.7 nM. It also gave a TGI [23] of 802 nM, a GI50 [24] of 63.4 nM and a TGI [24] of 593 nM. The GI50 [25] was 58.7 nM, the TGI [25] was 3010 nM and the GI50 [26] was 33.6 nM. The TGI [26] was 158 nM, the GI50 [27] was 151 nM and the TGI [27] was 8760 nM. It also gave a GI50 [28] of 63.4 nM, a TGI [28] of 1730 nM and a GI50 [29] of 70.9 nM. The TGI [29] was 5250 nM.
